Assay results as given in publication PMC3361628 (European Journal of Medicinal Chemistry, 2012).

Legend:
mice = details: mouse, in vivo; cited from earlier work
Trypanosoma rhodesiense = details: in vivo, 320 mg/kg; cited from earlier work
BoNT/A LC = BoNT/A LC (Clostridium botulinum, UniProt P0DPI0); format: biochemical
BoNT/A LC, sequence (P0DPI0 2-448 limits assumed): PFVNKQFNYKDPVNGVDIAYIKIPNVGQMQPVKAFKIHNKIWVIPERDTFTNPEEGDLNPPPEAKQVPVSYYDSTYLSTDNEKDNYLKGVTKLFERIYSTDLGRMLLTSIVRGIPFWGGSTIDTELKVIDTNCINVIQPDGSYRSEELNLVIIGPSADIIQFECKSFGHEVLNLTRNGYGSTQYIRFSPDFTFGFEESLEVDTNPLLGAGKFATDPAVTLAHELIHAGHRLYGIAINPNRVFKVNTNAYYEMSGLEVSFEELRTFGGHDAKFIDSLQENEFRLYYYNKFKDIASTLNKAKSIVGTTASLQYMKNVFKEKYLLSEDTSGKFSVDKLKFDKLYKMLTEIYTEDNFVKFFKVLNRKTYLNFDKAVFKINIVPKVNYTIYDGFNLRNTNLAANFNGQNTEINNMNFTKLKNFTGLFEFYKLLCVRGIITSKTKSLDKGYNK

**Q.** With `Cl.Cl.N=C(N)c1ccc(-c2ccc(-c3ccc(C(=N)N)cc3)s2)cc1` [Compound 1, 4,4′-Thiene-2,5-diyldibenzenecarboximidamide dihydrochloride] as the compound, how does the toxicity to mice (mice) read?
**A.** The toxicity to mice was “non-toxic”.

**Q.** What about the survival (Trypanosoma rhodesiense) of the same compound?
**A.** The survival was 100%.

**Q.** Which “decrease in inhibitory potency versus 4b” value (BoNT/A LC) does the source give for `Clc1ccc2c(NCCNCc3ccc(-c4ccc(-c5ccc(CNCCNc6ccnc7cc(Cl)ccc67)cc5)s4)cc3)ccnc2c1.O=C(O)C(F)(F)F` [Compound 4a, 4,4′-[Thiene-2,5-diylbis(4,1-phenylenemethyleneammonioethane-2,1-diylimino)]bis(7-chloroquinolinium) tetra(trifluoroacetate)] here?
**A.** Its value is “approx. 3 fold”.

**Q.** For `Clc1ccc2c(NCCCCNCc3ccc(-c4ccc(-c5ccc(CNCCCCNc6ccnc7cc(Cl)ccc67)cc5)s4)cc3)ccnc2c1.O=C(O)C(F)(F)F` [Compound 4c, 4,4′-[thiene-2,5-diylbis(4,1-phenylenemethyleneammoniobutane-4,1-diylimino)]bis(7-chloroquinolinium) tetra(trifluoroacetate)], which “decrease in inhibitory potency versus 4b” value (BoNT/A LC) is on record?
**A.** The value was “approx. 1.8 fold”.

**Q.** For `Clc1ccc2c(NCCCCCNCc3ccc(-c4ccc(-c5ccc(CNCCCCCNc6ccnc7cc(Cl)ccc67)cc5)s4)cc3)ccnc2c1.O=C(O)C(F)(F)F` [Compound 4d, 4,4′-[thiene-2,5-diylbis(4,1-phenylenemethyleneammoniopentane-5,1-diylimino)]bis(7-chloroquinolinium) tetra(trifluoroacetate)], which “decrease in inhibitory potency versus 4b” value (BoNT/A LC) is on record?
**A.** The value was “approx. 3 fold”.

**Q.** For `O=C(NCCCNc1ccnc2cc(Cl)ccc12)c1cc(NC(=O)c2ccc(C(=O)Nc3cc(C(=O)NCCCNc4ccnc5cc(Cl)ccc45)cc(C4=NCCN4)c3)cc2)cc(C2=NCCN2)c1` [II, reference compound], which “increase in inhibitory potency versus I” value (BoNT/A LC) is on record?
**A.** Its value is “approx. 15 fold”.
